The source of these data is ChEMBL document CHEMBL3044697, “Natural products-based insecticidal agents 13. Semisynthesis and insecticidal activity of novel phenazine derivatives of 4β-acyloxypodophyllotoxin modified in the E-ring against Mythimna separata Walker in vivo” (2013).

Molecules are shown by their SMILES. Activity calls are given as the source filed them. No cut-off for these calls is given here.

Experiment [1] deals with Mythimna separata. Briefly: Insecticidal activity against Mythimna separata (Oriental armyworm) pre-third-instar larvae fed on 1 mg/ml compound pre-treated wheat leaves assessed as insect mortality measured after 10 days by leaf-dipping method. The format is functional.
Experiment [2] concerns Mythimna separata. Kind of experiment: Insecticidal activity against Mythimna separata (Oriental armyworm) pre-third-instar larvae fed on 1 mg/ml compound pre-treated wheat leaves assessed as insect mortality measured after 34 days by leaf-dipping method. The format is functional.
For experiment [3], the system named is Mythimna separata. Kind of experiment: Insecticidal activity against Mythimna separata (Oriental armyworm) pre-third-instar larvae fed on 1 mg/ml compound pre-treated wheat leaves assessed as insect mortality by leaf-dipping method. Format: functional, organism-based. To be noted: TDE = time-dependent effect.
The test system of experiment [4] is Mythimna separata. Kind of experiment: Insecticidal activity against Mythimna separata (Oriental armyworm) pre-third-instar larvae fed on 1 mg/ml compound pre-treated wheat leaves assessed as insect mortality measured after 20 days by leaf-dipping method. Format: functional.
In experiment [5] the test system is Mythimna separata. Briefly: Insecticidal activity against Mythimna separata (Oriental armyworm) pre-third-instar larvae fed on 1 mg/ml compound pre-treated wheat leaves assessed as induction of malformation of pupae measured during pupation period by leaf-dipping method. Format: functional, organism-based.
Experiment [6] has as its system Mythimna separata. Kind of experiment: Insecticidal activity against Mythimna separata (Oriental armyworm) pre-third-instar larvae fed on 1 mg/ml compound pre-treated wheat leaves assessed as induction of malformation of pupae with imperfect wings measured during emergence period by leaf-dipping method. The format is functional, organism-based.

With `COc1cc([C@@H]2c3cc4c(cc3[C@@H](OC(=O)c3ccc(Cl)cc3)[C@H]3COC(=O)[C@H]23)OCO4)cc2nc3ccccc3nc12`, the results for the mortality in experiment [1], in experiment [2] and in experiment [4] were 0%, 48.3% and 17.2%, respectively. In experiment [3], the Activity entry is “tde”.
Consider `COc1cc([C@@H]2c3cc4c(cc3[C@@H](OC(=O)c3ccc([N+](=O)[O-])cc3)[C@H]3COC(=O)[C@H]23)OCO4)cc2nc3ccccc3nc12`, for which the mortality – broadly, the percentage killed – is 3.3% in experiment [1], 37.9% in experiment [2] and 13.8% in experiment [4]. Besides, the Activity result in experiment [3] is “tde”.
Turning to `CCCCCCCCCCCCCCCC(=O)O[C@@H]1c2cc3c(cc2[C@@H](c2cc(OC)c4nc5ccccc5nc4c2)[C@H]2C(=O)OC[C@@H]21)OCO3`, the mortality in experiment [1] was determined as 0%; in experiment [2] it was 27.6%; in experiment [4] it was 6.9%. The Activity entry in experiment [3] is “tde”.
Turning to `COc1cc([C@@H]2c3cc4c(cc3[C@@H](O)[C@H]3COC(=O)[C@H]23)OCO4)cc(OC)c1O` [4'-DEMETHYLEPIPODOPHYLLOTOXIN], the mortality in experiment [1] was 6.7%; in experiment [2] it was 37.9%; in experiment [4], 13.8%. Further, the Activity result in experiment [3] was “tde”.
As for `CCCCCCCCCCCC(=O)O[C@@H]1c2cc3c(cc2[C@@H](c2cc(OC)c4nc5ccccc5nc4c2)[C@H]2C(=O)OC[C@@H]21)OCO3`, in experiment [5], the result was Active. The mortality is 0% in experiment [1], 34.5% in experiment [2] and 6.9% in experiment [4]. Further, in experiment [3], the Activity result was “tde”.
With `COc1cc([C@@H]2c3cc4c(cc3[C@@H](OC(=O)c3cccc(C)c3)[C@H]3COC(=O)[C@H]23)OCO4)cc2nc3ccccc3nc12`, the values for the mortality in experiment [1], in experiment [2] and in experiment [4] were 6.7%, 41.4% and 13.8%, respectively. Also, the result in experiment [6] was Active. In addition, the Activity entry in experiment [3] was “tde”.
As to `COc1cc([C@@H]2c3cc4c(cc3[C@@H](OC(=O)Cc3ccc5ccccc5c3)[C@H]3COC(=O)[C@H]23)OCO4)cc2nc3ccccc3nc12`, the mortality in experiment [1] was found to be 3.3%; in experiment [2], 51.7%; in experiment [4] it was 6.9%. Further, the outcome in experiment [6] was Active. The Activity result in experiment [3] is “tde”.
Turning to `COc1cc([C@@H]2c3cc4c(cc3[C@@H](OC(=O)c3ccccc3)[C@H]3COC(=O)[C@H]23)OCO4)cc2nc3ccccc3nc12`, the results for the mortality in experiment [1], in experiment [2] and in experiment [4] were 3.3%, 24.1% and 17.2%, respectively. Besides, in experiment [3], the Activity result is “tde”.
For `CCCC(=O)O[C@@H]1c2cc3c(cc2[C@@H](c2cc(OC)c4nc5ccccc5nc4c2)[C@H]2C(=O)OC[C@@H]21)OCO3`, the results for the mortality in experiment [1], in experiment [2] and in experiment [4] were 3.3%, 37.9% and 10.3%, respectively. Besides, the result in experiment [6] was Active. Further, the Activity entry in experiment [3] was “tde”.
`COc1cc([C@@H]2c3cc4c(cc3[C@@H](OC(C)=O)[C@H]3COC(=O)[C@H]23)OCO4)cc2nc3ccccc3nc12`: the figures for the mortality in experiment [1], in experiment [2] and in experiment [4] were 6.7%, 41.4% and 20.7%, respectively. Also, the Activity entry in experiment [3] was “tde”.
With `COc1cc([C@@H]2c3cc4c(cc3[C@@H](O)[C@H]3COC(=O)[C@H]23)OCO4)cc2nc3ccccc3nc12`, in experiment [5], the result was Active. Further, the mortality in experiment [1] turned out to be 3.3%; in experiment [2] it was 31%; in experiment [4] it was 13.8%. Besides, in experiment [3], the Activity entry was “tde”.
In the case of `COc1cc([C@@H]2c3cc4c(cc3[C@@H](OC(=O)c3ccc(Cl)c([N+](=O)[O-])c3)[C@H]3COC(=O)[C@H]23)OCO4)cc2nc3ccccc3nc12`, the mortality in experiment [1] turned out to be 10%; in experiment [2], 55.2%; in experiment [4], 27.6%. Further, in experiment [6], the outcome was Active. Further, in experiment [3], the Activity entry is “tde”.
As for `CC(=O)O[C@@H]1C[C@H](O)[C@@]23CO[C@@H](O)[C@]1(C)[C@@H]2C[C@@H](O)[C@]1(C)[C@@H]3C(=O)[C@H](OC(C)=O)[C@@]2(C)[C@H](c3ccoc3)C[C@H]3O[C@]321` [TOOSENDANIN], the mortality in experiment [1] amounted to 10%; in experiment [2], 51.7%; in experiment [4], 27.6%. In addition, in experiment [3], the Activity result was “tde”.
Turning to `CCCCCCCCCCC(=O)O[C@@H]1c2cc3c(cc2[C@@H](c2cc(OC)c4nc5ccccc5nc4c2)[C@H]2C(=O)OC[C@@H]21)OCO3`, the result in experiment [5] and in experiment [6] was Active. Also, the values for the mortality in experiment [1], in experiment [2] and in experiment [4] were 0%, 37.9% and 10.3%, respectively. In experiment [3], the Activity entry was “tde”.
For `COc1cc([C@@H]2c3cc4c(cc3[C@H](O)[C@H]3COC(=O)[C@H]23)OCO4)cc(OC)c1OC` [PODOFILOX], the mortality came out at 6.7% in experiment [1], 34.5% in experiment [2] and 17.2% in experiment [4]. The Activity result in experiment [3] is “tde”.
With `COc1cc([C@@H]2c3cc4c(cc3[C@@H](OC(=O)c3cccc(Cl)c3)[C@H]3COC(=O)[C@H]23)OCO4)cc2nc3ccccc3nc12`, the outcome in experiment [5] was Active. Moreover, the mortality in experiment [1] was determined as 6.7%; in experiment [2], 41.4%; in experiment [4] it was 17.2%. The Activity result in experiment [3] is “tde”.
For `COc1cc([C@@H]2c3cc4c(cc3[C@@H](OC(=O)c3ccccc3Cl)[C@H]3COC(=O)[C@H]23)OCO4)cc2nc3ccccc3nc12` the same measures were “Active”, 10%, 51.7%, 20.7% and “tde”.
`CCC(=O)O[C@@H]1c2cc3c(cc2[C@@H](c2cc(OC)c4nc5ccccc5nc4c2)[C@H]2C(=O)OC[C@@H]21)OCO3`: the mortality turned out to be 20% in experiment [1], 55.2% in experiment [2] and 27.6% in experiment [4]. Also, the result in experiment [6] was Active. The Activity result in experiment [3] is “tde”.
